By IC50 is commonly meant the concentration at which inhibition is half-maximal.

In the test the target is T1, full-length human PKCι (Homo sapiens, UniProt P41743).
T1 construct: Recombinant, full-length human PKCι expressed in Sf21 insect cells is also commercially available; purchased; host or cells: Sf21 insect cells
T1 sequence (P41743 1-596): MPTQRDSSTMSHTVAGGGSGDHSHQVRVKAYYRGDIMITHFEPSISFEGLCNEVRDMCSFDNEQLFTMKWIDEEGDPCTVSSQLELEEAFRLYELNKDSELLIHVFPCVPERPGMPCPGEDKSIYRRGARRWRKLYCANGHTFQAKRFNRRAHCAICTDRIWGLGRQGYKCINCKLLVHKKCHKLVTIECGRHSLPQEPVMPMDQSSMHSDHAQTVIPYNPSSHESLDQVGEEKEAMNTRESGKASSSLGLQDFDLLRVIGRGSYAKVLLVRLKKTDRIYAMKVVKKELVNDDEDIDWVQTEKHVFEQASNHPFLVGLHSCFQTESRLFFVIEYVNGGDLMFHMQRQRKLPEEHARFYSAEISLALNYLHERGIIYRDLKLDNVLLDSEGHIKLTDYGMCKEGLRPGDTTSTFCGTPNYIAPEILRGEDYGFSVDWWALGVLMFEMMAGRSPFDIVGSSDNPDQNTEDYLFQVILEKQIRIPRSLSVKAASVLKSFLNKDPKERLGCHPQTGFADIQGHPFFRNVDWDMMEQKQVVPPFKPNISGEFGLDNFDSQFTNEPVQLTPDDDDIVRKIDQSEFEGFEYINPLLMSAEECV
As to the kind of experiment: PKCι IC50 IMAP assay, full-length PKCι at 150 μM ATP. It counts as biochemical. The conditions noted are these: read-out: IC50 in IMAP assay against full length PKCi at 150 μM ATP. Put shortly:
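Full-length hPKCι (Sf21) ~15 pM; 5FAM-peptide 100 nM; ATP 150 μM (5× KM^APP); tris pH7.5/MgCl2/EGTA/DTT/Triton, 4% DMSO; 60 min RT; IMAP stop, 2 h; FP 485/530 nm; IC50 from % inhibition curves.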
For `CCn1nc(Nc2cc(-c3nc(N4CCNCC4)c4c(C5CC5)cncc4n3)ccn2)cc1C` [Example 780, [4-(5-Cyclopropyl-4-piperazin-1-yl-pyrido[3,4-d]pyrimidin-2-yl)-pyridin-2-yl]-(1-ethyl-5-methyl-1H-pyrazol-3-yl)-amine], the IC50 is < 100 nM.

Regarding `CN1CCN(c2cccc(Nc3cc(-c4nc(N5CCC[C@@H](O)C5)c5c(C6CC6)cncc5n4)ccn3)n2)CC1` [Example 781, (R)-1-(5-Cyclopropyl-2-{2-[6-(4-methyl-piperazin-1-yl)-pyridin-2-ylamino]-pyridin-4-yl}-pyrido[3,4-d]pyrimidin-4-yl)-piperidin-3-ol], the 50% inhibitory concentration (IC50) is 100 to 1000 nM.

For `Fc1cnc(Nc2cc(-c3nc(N4CCNCC4)c4c(C5CCC5)cncc4n3)ccn2)c(F)c1` [Example 783, [4-(5-Cyclobutyl-4-piperazin-1-yl-pyrido[3,4-d]pyrimidin-2-yl)-pyridin-2-yl]-(3,5-difluoro-pyridin-2-yl)-amine], the IC50 is < 100 nM.

As for `Fc1cccnc1Nc1cc(-c2nc(N3CCNCC3)c3c(C4CCC4)cncc3n2)ccn1` [Example 784, [4-(5-Cyclobutyl-4-piperazin-1-yl-pyrido[3,4-d]pyrimidin-2-yl)-pyridin-2-yl]-(3-fluoro-pyridin-2-yl)-amine], the IC50 was < 100 nM.

`Fc1ccnc(Nc2cc(-c3nc(N4CCNCC4)c4c(C5CCC5)cncc4n3)ccn2)c1` [Example 785, [4-(5-Cyclobutyl-4-piperazin-1-yl-pyrido[3,4-d]pyrimidin-2-yl)-pyridin-2-yl]-(4-fluoro-pyridin-2-yl)-amine]: the IC50 is < 100 nM.

In the case of `Fc1cc(F)c(F)c(Nc2cc(-c3nc(N4CCNCC4)c4c(C5CCC5)cncc4n3)ccn2)n1` [Example 786, [4-(5-Cyclobutyl-4-piperazin-1-yl-pyrido[3,4-d]pyrimidin-2-yl)-pyridin-2-yl]-(3,4,6-trifluoro-pyridin-2-yl)-amine], the IC50 is < 100 nM.

On to `CC1CN(c2nc(-c3ccnc(Nc4c(F)cccc4F)c3)nc3cncc(C4CC4)c23)CC(C)N1` (stereo not drawn) [Example 787, {4-[5-Cyclopropyl-4-(3,5-dimethyl-piperazin-1-yl)-pyrido[3,4-d]pyrimidin-2-yl]-pyridin-2-yl}-(2,6-difluoro-phenyl)-amine], for which the IC50 was < 100 nM.

As for `N#C[C@H]1CN(c2nc(-c3ccnc(Nc4c(F)cccc4F)c3)nc3cncc(C4CC4)c23)CCN1` [Example 788, (R)-4-{5-Cyclopropyl-2-[2-(2,6-difluoro-phenylamino)-pyridin-4-yl]-pyrido[3,4-d]pyrimidin-4-yl}-piperazine-2-carbonitrile], the IC50 lay in the range of 100 to 1000 nM.

For the compound `Fc1cccc(F)c1Nc1cc(-c2nc(C3=CCNCC3)c3c(C4CC4)cncc3n2)ccn1` [Example 789, {4-[5-Cyclopropyl-4-(1,2,3,6-tetrahydro-pyridin-4-yl)-pyrido[3,4-d]pyrimidin-2-yl]-pyridin-2-yl}-(2,6-difluoro-phenyl)-amine], the half-inhibitory concentration (IC50) lay in the range of 100 to 1000 nM.

For the compound `Fc1cccc(F)c1Nc1cc(-c2nc(NC3CCNCC3)c3c(C4CC4)cncc3n2)ccn1` [Example 790, {5-Cyclopropyl-2-[2-(2,6-difluoro-phenylamino)-pyridin-4-yl]-pyrido[3,4-d]pyrimidin-4-yl}-piperidin-4-yl-amine], the IC50 is < 100 nM.

With `Fc1cccc(F)c1Nc1cc(-c2nc(SC3CCNCC3)c3c(C4CC4)cncc3n2)ccn1` [Example 791, {4-[5-Cyclopropyl-4-(piperidin-4-ylsulfanyl)-pyrido[3,4-d]pyrimidin-2-yl]-pyridin-2-yl}-(2,6-difluoro-phenyl)-amine], the half-inhibitory concentration (IC50) was < 100 nM.

For the compound `CN1CCN(c2cccc(Nc3cc(-c4nc(N5C[C@H](O)[C@@H](O)C5)c5c(C6CC6)cncc5n4)ccn3)c2)CC1` [Example 793, (3S,4S)-1-(5-Cyclopropyl-2-{2-[3-(4-methyl-piperazin-1-yl)-phenylamino]-pyridin-4-yl}-pyrido[3,4-d]pyrimidin-4-yl)-pyrrolidine-3,4-diol], the IC50 fell in the range of 100 to 1000 nM.

With `c1cc(-c2nc(N3CCNCC3)c3c(C4CC4)cncc3n2)cc(Nc2cnn(C3CC3)c2)n1` [Example 794, [4-(5-Cyclopropyl-4-piperazin-1-yl-pyrido[3,4-d]pyrimidin-2-yl)-pyridin-2-yl]-(1-cyclopropyl-1H-pyrazol-4-yl)-amine], the IC50 is < 100 nM.

As for `c1cc(-c2nc(N3CCNCC3)c3c(C4CC4)cncc3n2)cc(Nc2cnn(C3CCOCC3)c2)n1` [Example 795, [4-(5-Cyclopropyl-4-piperazin-1-yl-pyrido[3,4-d]pyrimidin-2-yl)-pyridin-2-yl]-[1-(tetrahydro-pyran-4-yl)-1H-pyrazol-4-yl]-amine], the IC50 is < 100 nM.

Regarding `c1cc(-c2nc(N3CCNCC3)c3c(C4CC4)cncc3n2)cc(Nc2cnn(C3CCCC3)c2)n1` [Example 796, (1-Cyclopentyl-1H-pyrazol-4-yl)-[4-(5-cyclopropyl-4-piperazin-1-yl-pyrido[3,4-d]pyrimidin-2-yl)-pyridin-2-yl]-amine], the IC50 was < 100 nM.

In the case of `CN(C)CCN(C)c1nc(-c2ccnc(Nc3c(F)cccc3F)c2)nc2cncc(C3CC3)c12` [Example 797, N-{5-Cyclopropyl-2-[2-(2,6-difluoro-phenylamino)-pyridin-4-yl]-pyrido[3,4-d]pyrimidin-4-yl}-N,N′,N′-trimethyl-ethane-1,2-diamine], the 50% inhibitory concentration (IC50) is 100 to 1000 nM.

For `C[C@H]1CN(c2nc(-c3ccnc(Nc4nc(F)ccc4F)c3)nc3cncc(C4CCC4)c23)CCN1` [Example 798, {4-[5-Cyclobutyl-4-((S)-3-methyl-piperazin-1-yl)-pyrido[3,4-d]pyrimidin-2-yl]-pyridin-2-yl}-(3,6-difluoro-pyridin-2-yl)-amine], the IC50 was < 100 nM.

As for `Fc1ccc(F)c(Nc2cc(-c3nc(N4CCNCC4)c4c(C5CCC5)cncc4n3)ccn2)n1` [Example 799, [4-(5-Cyclobutyl-4-piperazin-1-yl-pyrido[3,4-d]pyrimidin-2-yl)-pyridin-2-yl]-(3,6-difluoro-pyridin-2-yl)-amine], the 50% inhibitory concentration (IC50) is < 100 nM.

Take `C[C@H]1CN(c2nc(-c3ccnc(Nc4ncccc4F)c3)nc3cncc(C4CC4)c23)CCN1` [Example 800, {4-[5-Cyclopropyl-4-((S)-3-methyl-piperazin-1-yl)-pyrido[3,4-d]pyrimidin-2-yl]-pyridin-2-yl}-(3-fluoro-pyridin-2-yl)-amine]: the IC50 was < 100 nM.

On to `Fc1ccc(Cl)nc1Nc1cc(-c2nc(N3CCNCC3)c3c(C4CC4)cncc3n2)ccn1` [Example 801, (6-Chloro-3-fluoro-pyridin-2-yl)-[4-(5-cyclopropyl-4-piperazin-1-yl-pyrido[3,4-d]pyrimidin-2-yl)-pyridin-2-yl]-amine], for which the half-inhibitory concentration (IC50) was < 100 nM.

Regarding `C[C@@H](Nc1cc(-c2nc(N3CCNCC3)c3c(C4CC4)cncc3n2)ccn1)c1nc(F)ccc1F` [Example 802, [4-(5-Cyclopropyl-4-piperazin-1-yl-pyrido[3,4-d]pyrimidin-2-yl)-pyridin-2-yl]-[(R)-1-(3,6-difluoro-pyridin-2-yl)-ethyl]-amine], the 50% inhibitory concentration (IC50) is < 100 nM.

Take `CN(C)CCCCNc1nc(-c2ccnc(Nc3c(F)cccc3F)c2)nc2cncc(C3CC3)c12` [Example 803, N-{5-Cyclopropyl-2-[2-(2,6-difluoro-phenylamino)-pyridin-4-yl]-pyrido[3,4-d]pyrimidin-4-yl}-N′,N′-dimethyl-butane-1,4-diamine]: the IC50 was in the range of 100 to 1000 nM.

Regarding `CN1CCN(c2cccc(Nc3cc(-c4nc(N5CCCCCC5)c5c(C6CC6)cncc5n4)ccn3)c2)CC1` [Example 804, [4-(4-Azepan-1-yl-5-cyclopropyl-pyrido[3,4-d]pyrimidin-2-yl)-pyridin-2-yl]-[3-(4-methyl-piperazin-1-yl)-phenyl]-amine], the IC50 is 100 to 1000 nM.

For `OC1CCN(c2nc(-c3ccnc(Nc4cccc(F)n4)c3)nc3cncc(C4CC4)c23)CC1` [Example 805, 1-{5-Cyclopropyl-2-[2-(6-fluoro-pyridin-2-ylamino)-pyridin-4-yl]-pyrido[3,4-d]pyrimidin-4-yl}-piperidin-4-ol], the IC50 lay in the range of 100 to 1000 nM.

`O[C@@H]1CCCN(c2nc(-c3ccnc(Nc4cccc(F)n4)c3)nc3cncc(C4CC4)c23)C1` [Example 806, (R)-1-{5-Cyclopropyl-2-[2-(6-fluoro-pyridin-2-ylamino)-pyridin-4-yl]-pyrido[3,4-d]pyrimidin-4-yl}-piperidin-3-ol]: the IC50 is 1000 to 10000 nM.

Regarding `Fc1cc(F)c(Nc2cc(-c3nc(N4CCNCC4)c4c(C5CCC5)cncc4n3)ccn2)nc1F` [Example 807, [4-(5-Cyclobutyl-4-piperazin-1-yl-pyrido[3,4-d]pyrimidin-2-yl)-pyridin-2-yl]-(3,5,6-trifluoro-pyridin-2-yl)-amine], the half-maximal inhibitory concentration (IC50) is < 100 nM.

Turning to `C[C@H]1CN(c2nc(-c3ccnc(Nc4nc(F)c(F)cc4F)c3)nc3cncc(C4CCC4)c23)CCN1` [Example 808, {4-[5-Cyclobutyl-4-((S)-3-methyl-piperazin-1-yl)-pyrido[3,4-d]pyrimidin-2-yl]-pyridin-2-yl}-(3,5,6-trifluoro-pyridin-2-yl)-amine], the IC50 was < 100 nM.

The values are drawn from patent publication US9914730B2, “Azaquinazoline inhibitors of Atypical protein Kinase C” (Ignyta, Inc., priority 2012, dated 2018).
